“And” between values parts separate entries of the source, which are not always exact repeats. Identical values can stand only once.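 Each compound was tested at five concentrations against cells in 96-well plates for 48 hours. GI50: concentration for 50% inhibition of growth. TGI is the concentration that stops growth completely.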
What was measured:
Assay in all cases: NCI anticancer screen, dose series, 48 h
[1] = system: MDA-MB-231 breast
[2] = system: HS 578T breast
[3] = system: DU-145 prostate
[4] = system: ACHN renal
[5] = system: MDA-MB-435
[6] = system: UO-31 renal
[7] = system: LOX IMVI melanoma
[8] = system: TK-10 renal
[9] = system: SF-539 CNS
[10] = system: NCI-H460 lung
[11] = system: NCI-H23 lung
[12] = system: LXFL 529 NSCLC
[13] = system: SR leukemia
[14] = system: RXF-631 renal
[15] = system: SNB-19 CNS
[16] = system: OVCAR-4 ovarian
[17] = system: KM12 colon
[18] = system: SNB-78 CNS

| Compound | TGI [1] | GI50 [2] [µM] | TGI [2] | GI50 [3] [µM] | TGI [4] | GI50 [5] [µM] | TGI [5] | GI50 [6] [µM] | TGI [6] | GI50 [8] [µM] | TGI [8] | TGI [13] | TGI [15] | GI50 [16] | TGI [16] | GI50 [17] | TGI [17] | other results |
| --- | --- | --- | --- | --- | --- | --- | --- | --- | --- | --- | --- | --- | --- | --- | --- | --- | --- | --- |
| C1CN1c1nc(N2CC2)nc(N2CC2)n1 | 56.5 µM and 36.4 µM | 23.4 | 87.5 µM and 52.8 µM | 0.825 | 20.5 µM | 16.5 | 35.8 µM and 29.9 µM | 1.28 | 23.4 µM and 3.68 µM | 4.36 | 79.8 µM and 16.7 µM | 19.6 µM | 58.2 µM and > 51.3 µM | 13.8 µM | 36.5 µM and 20.3 µM | 13 µM | 42.3 µM and 35.9 µM | TGI [7]: 24.7 µM and 14.3 µM; GI50 [9]: 1.78 µM; TGI [9]: 12.8 µM and 8.65 µM; TGI [10]: 17.6 µM; GI50 [11]: 5.55 µM; TGI [11]: 20 µM and 15 µM; TGI [12]: 29.7 µM; TGI [14]: 42.3 µM; GI50 [15]: 4.55 µM |
| C[C@@]1(CO)[C@H](O)CC[C@@]2(C)[C@H]1CC[C@H]1C[C@@H]3C[C@@]12CC[C@@]3(O)COC(=O)CN | > 89.6 µM and 172 µM | 110 | > 97.2 µM and 214 µM | 2.02 | 40.7 µM and 16.5 µM | 34.8 | > 77.6 µM and 109 µM | 9.27 | > 80.6 µM and 201 µM | 116 | > 81.1 µM and 193 µM | 46.5 µM and 47.4 µM | > 500 µM and 254 µM | > 500 µM and 111 µM | > 87.1 µM and > 500 µM and 182 µM | > 500 µM and 101 µM | 73.7 µM and > 500 µM and 238 µM | GI50 [1]: 45.4 µM; TGI [3]: > 59.8 µM and 75.5 µM; GI50 [4]: 0.186 µM; GI50 [7]: 3.62 µM and 6.65 µM; GI50 [10]: 0.176 µM and 1.37 µM and 0.317 µM; GI50 [18]: > 500 µM; TGI [18]: > 500 µM; GI50 [13]: 1.66 µM |
